The results in this text go back to patent publication US9204653B2, “5-fluoro pyrimidine derivatives” (DOW AGROSCIENCES LLC, priority 2008, dated 2015).

Each structure is given as a SMILES string. Like-named read-outs stand apart in the source and are kept apart here.

The subject of experiment [1] is Venturia inaequalis; Bayer Code VENTIN. Briefly: Apple scab. Conditions: 24 h, % disease control rating, one day protectant; for pest or weed control at 25 ppm: read-out: VENTIN 1 DP 25 ppm; for pest or weed control at 75 ppm: read-out: VENTIN 1 DP 75 ppm. It counts as in vivo.
Experiment [2] has as its system Mycosphaerella graminicola; Anamorph: Septoria tritici; Bayer Code SEPTTR. The experiment is described as follows: Leaf blotch of wheat, foliar fungicide treatment, one day protectant (1DP) or three day curative (3DC). It counts as in vivo, Septoria tritici on wheat plants (variety Yuma). Conditions: Zymoseptoria tritici, rating of percent disease control.
The subject of experiment [3] is Cercospora beticola; Bayer Code CERCBE. The experiment is described as follows: Leaf spot of sugar beets. It counts as in vivo, Cercospora beticola on sugar beets (variety HH-88). Conditions: 24 h, % disease control rating, one day protectant; for pest or weed control at 25 ppm: read-out: CERCBE 1 DP 25 ppm; for pest or weed control at 75 ppm: read-out: CERCBE 1 DP 75 ppm.

The mark [4] stands for this setting: 24 h, one day protectant, read-out: SETTTR 1DP 25 ppm.
The mark [5] stands for this setting: 24 h, one day protectant, read-out: SEPTTR 1DP 100 ppm.
Setting [6] is: 72 h, three day curative, read-out: SEPTTR 3DC 25 ppm.
Where [7] appears, read: 72 h, three day curative, read-out: SEPTTR 3DC 100 ppm.
Where [8] appears, read: 24 h, one day protectant (1DP), read-out: SETTTR 1DP 25 ppm.
Setting [9] is: 24 h, one day protectant (1DP), read-out: SEPTTR 1DP 100 ppm.
[10] abbreviates: 72 h, three day curative (3DC), read-out: SEPTTR 3DC 25 ppm.
The mark [11] stands for this setting: 72 h, three day curative (3DC), read-out: SEPTTR 3DC 100 ppm.

As to `C=CCc1cc(COc2ncc(F)c(N)n2)cc(OC)c1OC` [Compound 569], the pest or weed control at 25 ppm in experiment [1] is 76 to 100%; in experiment [2] (setting [4]), 76 to 100%; in experiment [2] (setting [6]), 51 to 75%; in experiment [3], 26 to 50%. Also, the pest or weed control at 75 ppm in experiment [1] and in experiment [3] was 76 to 100% each time. Moreover, the pest or weed control at 100 ppm in experiment [2] (setting [5]) and in experiment [2] (setting [7]) was 76 to 100% throughout.
For the compound `CN(C)/C=N/c1nc(OCc2cccs2)ncc1F` [Compound 570], the pest or weed control at 25 ppm in experiment [1] fell in the range of 26 to 50%; in experiment [2] (setting [4]) it was 76 to 100%; in experiment [2] (setting [6]) it was 76 to 100%; in experiment [3], 0 to 25%. In addition, the pest or weed control at 75 ppm in experiment [1] was in the range of 76 to 100%; in experiment [3], 26 to 50%. The pest or weed control at 100 ppm in experiment [2] (setting [5]) and in experiment [2] (setting [7]) was 76 to 100% each time.
As for `Nc1nc(OCc2cnc(Cl)c(Cl)c2)ncc1F` [Compound 582], the pest or weed control at 25 ppm in experiment [1] lay in the range of 76 to 100%; in experiment [2] (setting [4]), 76 to 100%; in experiment [2] (setting [6]), 76 to 100%; in experiment [3], 51 to 75%. The pest or weed control at 75 ppm in experiment [1] lay within 76 to 100%; in experiment [3], 51 to 75%. The pest or weed control at 100 ppm in experiment [2] (setting [5]) and in experiment [2] (setting [7]) was 76 to 100% throughout.
Take `CCn1nccc1Oc1ncc(F)c(N)n1` [Compound 584]: the pest or weed control at 25 ppm lay in the range of 26 to 50% in experiment [1], 0 to 25% in experiment [2] (setting [4]), 0 to 25% in experiment [2] (setting [6]) and 26 to 50% in experiment [3]. The pest or weed control at 75 ppm in experiment [1] and in experiment [3] was 26 to 50% each time. The pest or weed control at 100 ppm in experiment [2] (setting [5]) and in experiment [2] (setting [7]) was 76 to 100% each time.
For `Nc1nc(Oc2cccc(Cl)c2)ncc1F` [Compound 593], the pest or weed control at 25 ppm was 76 to 100% in experiment [1], 0 to 25% in experiment [2] (setting [4]) and 26 to 50% in experiment [3]. In addition, the values for the pest or weed control at 75 ppm in experiment [1] and in experiment [3] were 76 to 100% and 51 to 75%, respectively. In addition, the pest or weed control at 100 ppm in experiment [2] (setting [5]) was 51 to 75%.
With `Fc1cnc(OCc2ccccc2)nc1/N=C/N1CCOCC1` [Compound 626], the pest or weed control at 25 ppm in experiment [1] was 26 to 50%; in experiment [2] (setting [4]) it was 76 to 100%; in experiment [2] (setting [6]), 76 to 100%; in experiment [3], 0 to 25%. Besides, the pest or weed control at 75 ppm in experiment [1] lay in the range of 76 to 100%; in experiment [3], 0 to 25%. Moreover, the pest or weed control at 100 ppm in experiment [2] (setting [5]) and in experiment [2] (setting [7]) was 76 to 100% throughout.
Consider `Nc1nc(OCc2csc3ccccc23)ncc1F` [Compound 630], for which the pest or weed control at 25 ppm lay in the range of 51 to 75% in experiment [1], 76 to 100% in experiment [2] (setting [4]), 76 to 100% in experiment [2] (setting [6]) and 0 to 25% in experiment [3]. Moreover, the pest or weed control at 75 ppm in experiment [1] lay within 76 to 100%; in experiment [3], 0 to 25%. In addition, the pest or weed control at 100 ppm in experiment [2] (setting [5]) and in experiment [2] (setting [7]) was 76 to 100% each time.
With `C=CC(C)Oc1ncc(F)c(N)n1` (stereo not drawn) [Compound 631], the pest or weed control at 25 ppm in experiment [1], in experiment [2] (setting [4]), in experiment [2] (setting [6]) and in experiment [3] was 0 to 25% throughout. The pest or weed control at 75 ppm in experiment [1] is 26 to 50%; in experiment [3], 0 to 25%. Further, the pest or weed control at 100 ppm in experiment [2] (setting [5]) and in experiment [2] (setting [7]) was 0 to 25% in each case.
Consider `Nc1nc(OCCCc2ccccn2)ncc1F` [Compound 635], for which the pest or weed control at 25 ppm in experiment [1] lay within 26 to 50%; in experiment [2] (setting [4]), 26 to 50%; in experiment [2] (setting [6]) it was 0 to 25%; in experiment [3], 26 to 50%. In addition, the pest or weed control at 75 ppm in experiment [1] lay in the range of 76 to 100%; in experiment [3], 26 to 50%. The pest or weed control at 100 ppm in experiment [2] (setting [5]) and in experiment [2] (setting [7]) was 76 to 100% in each case.
For `COc1ccc(Oc2ncc(F)c(NC(C)=O)n2)cc1` [Compound 649], the pest or weed control at 25 ppm in experiment [1] was 26 to 50%; in experiment [2] (setting [4]), 0 to 25%; in experiment [2] (setting [6]) it was 0 to 25%; in experiment [3], 0 to 25%. In addition, the values for the pest or weed control at 75 ppm in experiment [1] and in experiment [3] were 26 to 50% and 0 to 25%, respectively. For the same compound, the pest or weed control at 100 ppm in experiment [2] (setting [5]) is 26 to 50%; in experiment [2] (setting [7]), 76 to 100%.
On to `CC(C)(c1ccccc1)c1cccc(COc2ncc(F)c(N)n2)c1` [Compound 687], for which the pest or weed control at 25 ppm in experiment [1] was in the range of 26 to 50%; in experiment [2] (setting [4]), 26 to 50%; in experiment [2] (setting [6]), 0 to 25%; in experiment [3] it was 0 to 25%. In addition, the pest or weed control at 75 ppm in experiment [1] fell in the range of 51 to 75%; in experiment [3], 0 to 25%. For the same compound, the pest or weed control at 100 ppm in experiment [2] (setting [5]) lay within 76 to 100%; in experiment [2] (setting [7]), 0 to 25%.
On to `Fc1ccc(COc2ncc(F)c(NCn3c(-c4cscn4)nc4ccccc43)n2)cc1` [Compound 694], for which the pest or weed control at 25 ppm in experiment [1] was 26 to 50%; in experiment [2] (setting [4]), 0 to 25%; in experiment [2] (setting [6]) it was 0 to 25%; in experiment [3] it was 26 to 50%. The results for the pest or weed control at 75 ppm in experiment [1] and in experiment [3] were 51 to 75% and 26 to 50%, respectively. In addition, the pest or weed control at 100 ppm in experiment [2] (setting [5]) and in experiment [2] (setting [7]) was 26 to 50% in each case.
Turning to `Nc1nc(OCc2ccc(Cl)c([N+](=O)[O-])c2)ncc1F` [Compound 707], the pest or weed control at 25 ppm was in the range of 51 to 75% in experiment [1], 76 to 100% in experiment [2] (setting [4]), 76 to 100% in experiment [2] (setting [6]) and 51 to 75% in experiment [3]. Further, the pest or weed control at 75 ppm in experiment [1] was in the range of 51 to 75%; in experiment [3], 26 to 50%. In addition, the pest or weed control at 100 ppm in experiment [2] (setting [5]) and in experiment [2] (setting [7]) was 76 to 100% in each case.
Regarding `CC(CCOc1ncc(F)c(N)n1)c1ccccc1` (stereo not drawn) [Compound 710], the pest or weed control at 25 ppm in experiment [1] fell in the range of 26 to 50%; in experiment [2] (setting [4]), 51 to 75%; in experiment [2] (setting [6]), 51 to 75%; in experiment [3], 0 to 25%. For the same compound, the pest or weed control at 75 ppm fell in the range of 26 to 50% in experiment [1] and 0 to 25% in experiment [3]. Besides, the pest or weed control at 100 ppm in experiment [2] (setting [5]) and in experiment [2] (setting [7]) was 76 to 100% in each case.
As for `Nc1nc(OCCSc2ccc(Cl)cc2)ncc1F` [Compound 719], the pest or weed control at 25 ppm in experiment [1] was in the range of 51 to 75%; in experiment [2] (setting [4]) it was 0 to 25%; in experiment [3], 0 to 25%. The figures for the pest or weed control at 75 ppm in experiment [1] and in experiment [3] were 51 to 75% and 26 to 50%, respectively. Moreover, in experiment [2] (setting [5]), the pest or weed control at 100 ppm was in the range of 51 to 75%.
Turning to `CN(C)/C=N/c1nc(OCc2ccn(C)n2)ncc1F` [Compound 730], the pest or weed control at 25 ppm is 51 to 75% in experiment [1], 76 to 100% in experiment [2] (setting [4]), 76 to 100% in experiment [2] (setting [6]) and 26 to 50% in experiment [3]. In addition, the pest or weed control at 75 ppm in experiment [1] fell in the range of 51 to 75%; in experiment [3] it was 26 to 50%. For the same compound, the pest or weed control at 100 ppm in experiment [2] (setting [5]) and in experiment [2] (setting [7]) was 76 to 100% throughout.
Consider `COc1ccc(COc2ncc(F)c(/N=C3\CCCCN3C)n2)cc1F` [Compound 732], for which the pest or weed control at 25 ppm is 26 to 50% in experiment [1], 76 to 100% in experiment [2] (setting [4]), 51 to 75% in experiment [2] (setting [6]) and 26 to 50% in experiment [3]. In addition, the pest or weed control at 75 ppm in experiment [1] and in experiment [3] was 76 to 100% each time. The pest or weed control at 100 ppm in experiment [2] (setting [5]) and in experiment [2] (setting [7]) was 76 to 100% each time.
Regarding `CO/N=C\Nc1nc(OCc2ccc(F)cc2)ncc1F` [Compound 739], the pest or weed control at 25 ppm in experiment [1] was in the range of 26 to 50%; in experiment [2] (setting [8]) it was 76 to 100%; in experiment [2] (setting [10]), 76 to 100%; in experiment [3], 0 to 25%. Moreover, the pest or weed control at 75 ppm in experiment [1] fell in the range of 51 to 75%; in experiment [3], 0 to 25%. Moreover, the pest or weed control at 100 ppm in experiment [2] (setting [9]) and in experiment [2] (setting [11]) was 76 to 100% throughout.
On to `COc1cccc(COc2ncc(F)c(NCO)n2)c1` [Compound 741], for which the pest or weed control at 25 ppm in experiment [1] is 51 to 75%; in experiment [2] (setting [8]) it was 26 to 50%; in experiment [2] (setting [10]), 76 to 100%; in experiment [3], 0 to 25%. In addition, the figures for the pest or weed control at 75 ppm in experiment [1] and in experiment [3] were 76 to 100% and 0 to 25%, respectively. The pest or weed control at 100 ppm in experiment [2] (setting [9]) and in experiment [2] (setting [11]) was 76 to 100% in each case.
For `Cn1nc(Oc2ncc(F)c(N)n2)cc1C(F)(F)F` [Compound 764], the pest or weed control at 25 ppm in experiment [1] was in the range of 26 to 50%; in experiment [2] (setting [8]), 0 to 25%; in experiment [2] (setting [10]), 0 to 25%; in experiment [3], 26 to 50%. For the same compound, the pest or weed control at 75 ppm lay within 26 to 50% in experiment [1] and 0 to 25% in experiment [3]. The pest or weed control at 100 ppm in experiment [2] (setting [9]) and in experiment [2] (setting [11]) was 0 to 25% each time.
